Experimental data: US6974830B2, “NR1H4 nuclear receptor binding compounds” (Phenix Pharmaceuticals AG, priority 2001, dated 2005)
Where two headings read alike, the source gives them in different places.

What was measured:
[1] = biological target: T1, full length human FXR (Homo sapiens, UniProt Q96RI1); assay: transactivation of FXR mediated transcription in a HEK293 reporter cell line (luciferase); assay type: cell-based; conditions: for Emax: HEK293, read-out: EFFIC AVG (average efficacy, % activity relative to CDCA control agonist), relative to CDCA control agonist; for EC50: HEK293 FXR reporter cell line
T1 construct: expressed in transfected cells
T1 sequence (Q96RI1 1-472 isoform Q96RI1-2): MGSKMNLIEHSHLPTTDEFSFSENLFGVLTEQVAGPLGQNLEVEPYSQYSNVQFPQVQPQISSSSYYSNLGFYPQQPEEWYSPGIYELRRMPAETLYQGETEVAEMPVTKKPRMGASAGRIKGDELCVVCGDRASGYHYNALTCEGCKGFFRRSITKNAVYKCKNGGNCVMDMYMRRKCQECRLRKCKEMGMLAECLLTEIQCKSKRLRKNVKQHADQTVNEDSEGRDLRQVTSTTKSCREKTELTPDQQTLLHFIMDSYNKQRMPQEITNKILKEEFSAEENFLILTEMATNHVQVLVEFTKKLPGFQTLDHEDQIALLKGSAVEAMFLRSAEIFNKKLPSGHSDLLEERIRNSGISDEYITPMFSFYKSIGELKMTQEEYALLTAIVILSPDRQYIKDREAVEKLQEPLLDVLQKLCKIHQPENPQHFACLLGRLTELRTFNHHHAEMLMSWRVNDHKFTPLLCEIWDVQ
T1 sequence (P19793 1-462 partner): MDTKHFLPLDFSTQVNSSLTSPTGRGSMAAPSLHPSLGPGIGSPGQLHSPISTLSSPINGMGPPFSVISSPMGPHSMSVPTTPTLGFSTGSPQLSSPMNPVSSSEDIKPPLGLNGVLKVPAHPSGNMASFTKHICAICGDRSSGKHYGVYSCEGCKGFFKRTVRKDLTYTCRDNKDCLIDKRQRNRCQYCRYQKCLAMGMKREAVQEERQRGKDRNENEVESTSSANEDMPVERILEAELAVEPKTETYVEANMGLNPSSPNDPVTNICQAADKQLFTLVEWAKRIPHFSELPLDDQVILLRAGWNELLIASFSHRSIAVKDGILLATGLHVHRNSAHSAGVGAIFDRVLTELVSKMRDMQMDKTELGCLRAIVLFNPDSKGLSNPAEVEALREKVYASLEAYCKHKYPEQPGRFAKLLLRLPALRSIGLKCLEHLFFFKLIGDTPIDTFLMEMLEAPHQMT
Description: Tables 3, 4, 5 and 6 illustrate the preferred compounds according to the invention that can mediate transactivation of FXR mediated transcription in a HEK293 reporter cell line.
Stable HEK293FXR reporter cell lines were generated by stably transfecting with the pTRexDest30 (Invitrogen) derivatives pTRexDest30-hFXR, pTRexDest30-hRXR and the pGL2promoter (Promega) derivative pGL2promoter-FXRRE. The full length human FXR (accession U68233) and the full length human RXRα (accession P19793) were cloned into the pTRexDest30 applying the manufacturer protocols for the Gateway™ system (Invitrogen).
The FXR response elements were cloned (upper case and undrelined). 5′-cccaGGGTGAaTAACCTcggggctctgtccctccaatcccaGGGTGAaTAACCTcggg 3′ (SEQ ID NO. 5) was created from the human IBAB-P promoter (Grober et al 1999, JBC 274, pp. 29749-29754). A stable clone was selected and seeded at a density of […] cells per well in 48 well plates. Luciferase reporter activity was measured in duplicates from extracts of cells after incubating cells in culture medium (DMEM [Gibco-BRL]+10% FCS [PAA laboratories]) for 16 hours (5% CO2, 37° C.) containing 0.5% DMSO (control) or 0.5% DMSO with increasing concentrations of TR0800012996.

[2] = biological target: T2, human FXR alpha (NR1H4) (Homo sapiens, UniProt Q96RI1); assay: FXR binding / FXR-Tif 2 coactivator interaction, LANCE TR-FRET
T2 construct: agonist activity at the NR1H4 human nuclear receptor; fused on or other part: GST at the N-terminus (pDest15) in the TR-FRET test
T2 sequence (Q96RI1 1-486): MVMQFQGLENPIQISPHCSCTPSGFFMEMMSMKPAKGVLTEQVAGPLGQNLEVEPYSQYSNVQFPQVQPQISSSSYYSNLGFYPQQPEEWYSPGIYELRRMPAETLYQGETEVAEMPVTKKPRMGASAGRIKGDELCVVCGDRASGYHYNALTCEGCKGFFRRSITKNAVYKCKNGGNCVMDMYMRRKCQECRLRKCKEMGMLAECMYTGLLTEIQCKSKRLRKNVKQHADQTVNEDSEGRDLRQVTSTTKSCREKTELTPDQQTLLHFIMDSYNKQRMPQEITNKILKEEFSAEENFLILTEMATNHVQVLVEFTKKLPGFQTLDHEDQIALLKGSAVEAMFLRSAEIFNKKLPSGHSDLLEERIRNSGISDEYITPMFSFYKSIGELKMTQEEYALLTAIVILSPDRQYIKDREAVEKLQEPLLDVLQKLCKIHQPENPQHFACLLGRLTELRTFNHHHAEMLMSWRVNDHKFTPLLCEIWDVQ
Procedure: In particular, the invention relates to compounds as described above wherein the compounds are capable of binding the NR1H4 receptor protein or a portion thereof according to SEQ ID NOS 1-4 shown in FIGS. 4A-4D, respectively, or a mammalian homologue thereof. The claimed compound can bind to the NR1H4 receptor protein or a portion thereof in a mixture comprising 10-200 ng of NR1H4 receptor protein or a portion thereof, preferably the ligand binding domain, 20 mM Tris/HCl at pH 7.9; 60 mM KCl; 5 mM MgCl2; 160 ng/μl BSA in a total volume of preferably about 25 μl.
For in vitro screening for compounds which influence FXR binding to coactivators, a fragment of the open reading frame of human FXR alpha (NR1H4-(Acc. No:AF384555)) encoding aminoacids 187-472 was amplified by standard RT PCR procedures (see SEQ ID NOS. 1 and 2 in FIGS. 4A and 4B, respectively). The starting material was total RNA derived from human liver. The resulting cDNA obtained after reverse transcription was subsequently cloned using the Gateway™ recombination technology (Invitrogen, USA) into the expression plasmid pDest15 (Invitrogen, USA). This construct was used to express a recombinant GST-FXR fusion protein in E. coli (BL21 strain). A pDEST 17 derivative clone harboring an additional sequence encoding amino acids 548-878 of human TIF2 (Acc. No: XM—011633 RefSeq) was constructed using Gateway™ recombination technology (Invitrogen, USA) in order to obtain a construct which was used to express recombinant His-tagged TIF2 fragment in E. coli. For E. coli expression of both constructs, plasmid DNA was transformed into chemically competent E. coli BL21 (Invitrogen, USA) and cells were grown to an OD600 of 0.4-0.7 before expression was induced by addition of 0.5 mM IPTG according instructions of the manufacturer (Invitrogen). After induction for 8 hours at 30° C., the cells were harvested by centrifugation for 10 minutes at 5000×g. Fusion proteins were affinity purified using Glutathion sepharose (Pharmacia) or Ni-NTA Agarose (QIAGEN) according to the instructions of the respective manufacturer. Recombinant proteins were dialyzed against 20 mM Tris/HCL pH 7.9; 60 mM KCl; 5 mM MgCl2; 1 mM DTT, 0.2 mM PMSF; 10% glycerol. The TIF2 fragment was subsequently biotinylated by addition of 40-120 μl of a biotinamidocaproate N-hydroxysuccinimide-ester (Sigma) solution (20 mg/ml in DMSO). […]
For screening of the compound libraries as provided for by the methods described in Examples 2, 3 and 4 below for substances which influence the FXR/Tif 2 interaction, Perkin Elmer LANCE technology was used. […] For ease of handling and reduction of background from compound fluorescence, LANCE technology makes use of generic fluorophore labels and time resoved detection. […]

| Compound | Emax ([1]; Table 6) [%] | Emax ([1]; Tables 3-5) [%] | EC50 ([1]; Tables 3-5) [nM] | EC50 ([2]; read-out: EC50 (effective binding concentration at FXR, half-maximal effective concentration)) [nM] | agonist activity at the NR1H4 human nuclear receptor [2] |
| --- | --- | --- | --- | --- | --- |
| O=C(O)C1CCC(CNc2nc(-c3ccccc3O)c(Cc3c(F)cccc3F)s2)CC1 (stereo not shown) [LN0000006316] | 309 | 110 | 200 | – | – |
| O=C(O)c1ccc(CNc2nc(-c3ccccc3O)c(Cc3c(F)cccc3F)s2)cc1 [LN0000006317] | 223 | 115 | 1450 | – | – |
| O=C(O)C1CCC(CNc2nc(-c3ccccc3O)c(Cc3cccc(F)c3F)s2)CC1 (stereo not shown) [LN0000006322] | – | 115 | – | – | – |
| COc1ccccc1Cc1sc(NCC2CCC(C(=O)O)CC2)nc1-c1ccccc1O (stereo not shown) [LN0000006328] | – | 116 | 4500 | – | – |
| COc1ccccc1Cc1sc(NCc2ccc(C(=O)O)cc2)nc1-c1ccccc1O [LN0000006329] | – | 105 | 730 | – | – |
| O=C(O)CCCCCNc1nc(-c2ccccc2O)c(Cc2cccc(F)c2F)s1 [LN0000006346] | – | 63 | 5120 | – | – |
| O=C(O)c1ccc(CNc2nc(-c3cccc(O)c3)c(Cc3c(F)cccc3F)s2)cc1 [LN0000006349] | – | 66 | 4050 | – | – |
| O=C(O)C1CCC(CNc2nc(-c3ccccc3O)c(Cc3c(F)cccc3F)s2)CC1 (stereo not shown) [formula (III)] | – | – | – | 200 | – |
| O=C(O)C1CCC(CNc2nc(-c3cccc(O)c3)c(Cc3c(Cl)cccc3Cl)s2)CC1 (stereo not shown) [formula (IV)] | – | – | – | – | active as agonist |
| O=C(O)c1ccc(CNc2nc(-c3ccccc3O)c(Cc3cccc(F)c3F)s2)cc1 [formula (V)] | – | – | – | – | active as agonist |

Now from value to molecule:

| Emax ([1]; Table 6) [%] | Emax ([1]; Tables 3-5) [%] | EC50 ([1]; Tables 3-5) [nM] | EC50 ([2]; read-out: EC50 (effective binding concentration at FXR, half-maximal effective concentration)) [nM] | agonist activity at the NR1H4 human nuclear receptor [2] | Compound |
| --- | --- | --- | --- | --- | --- |
| – | 86 | 440 | – | – | O=C(O)c1ccc(CNc2nc(-c3ccccc3O)c(Cc3cccc(F)c3F)s2)cc1 [LN0000006323] |
| – | 66 | 3100 | – | – | COc1ccccc1Cc1sc(NCCCCCC(=O)O)nc1-c1ccccc1O [LN0000006347] |
| – | 109 | 2390 | – | – | O=C(O)C1CCC(CNc2nc(-c3cccc(O)c3)c(Cc3c(F)cccc3F)s2)CC1 (stereo not shown) [LN0000006348] |
| 340 | 92 | 360 | – | – | O=C(O)C1CCC(CNc2nc(-c3cccc(O)c3)c(Cc3c(Cl)cccc3Cl)s2)CC1 (stereo not shown) [LN0000006365] |
| – | – | – | – | active as agonist | COc1ccccc1Cc1sc(NCc2ccc(C(=O)O)cc2)nc1-c1ccccc1O [formula (VI)] |
